# Results: ChEMBL document CHEMBL1201862, “PubChem BioAssay data set” (2004)
# “And” between values parts separate entries of the source, which are not always exact repeats. Equal entries are not always repeated.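 Each compound was tested at five concentrations against cells in 96-well plates for 48 hours. Here, GI50 denotes the concentration required for 50% inhibition of growth.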 The source made the active and inactive calls. Cut-off read from the data, not from the text of the source: active = GI50 up to about 1.1 µM and inactive = higher.
# Experiments:
# Assay in all cases: NCI anticancer screen, dose series, 48 h
# 786-0 = system: 786-0
# A498 = system: A498
# A549 = system: A549
# ACHN = system: ACHN
# BT-549 = system: BT-549
# CAKI-1 = system: CAKI-1
# COLO 205 = system: COLO 205
# DU-145 = system: DU-145
# EKVX = system: EKVX
# HCT-116 = system: HCT-116
# HCT-15 = system: HCT-15
# HL-60 = system: HL-60
# HOP-62 = system: HOP-62
# HOP-92 = system: HOP-92
# HT-29 = system: HT-29
# Hs-578T = system: Hs-578T
# IGROV-1 = system: IGROV-1
# K562 = system: K562
# KM12 = system: KM12
# M14 = system: M14
# MCF7 = system: MCF7
# MDA-MB-231 = system: MDA-MB-231
# MDA-MB-435 = system: MDA-MB-435
# MOLT-4 = system: MOLT-4
# Malme-3M = system: Malme-3M
# NCI-H226 = system: NCI-H226
# NCI-H23 = system: NCI-H23
# NCI-H460 = system: NCI-H460
# NCI-H522 = system: NCI-H522
# NCI/ADR-RES = system: NCI/ADR-RES
# OVCAR-3 = system: OVCAR-3
# OVCAR-4 = system: OVCAR-4
# OVCAR-5 = system: OVCAR-5
# OVCAR-8 = system: OVCAR-8
# PC-3 = system: PC-3
# RPMI-8226 = system: RPMI-8226
# RXF 393 = system: RXF 393
# SF-268 = system: SF-268
# SF-295 = system: SF-295
# SF-539 = system: SF-539
# SK-MEL-28 = system: SK-MEL-28
# SK-MEL-2 = system: SK-MEL-2
# SK-MEL-5 = system: SK-MEL-5
# SK-OV-3 = system: SK-OV-3
# SN12C = system: SN12C
# SNB-19 = system: SNB-19
# SNB-75 = system: SNB-75
# SR = system: SR
# SW-620 = system: SW-620
# T47D = system: T47D
# TK-10 = system: TK-10
# U-251 = system: U-251
# UACC-257 = system: UACC-257
# UACC-62 = system: UACC-62
# UO-31 = system: UO-31
# CCRF-CEM = system: CCRF-CEM
# LOX IMVI = system: LOX IMVI
# MDA-N = system: MDA-N
smiles,measurement,setting,value
S=C(Nc1cc(Cl)c(Cl)cc1Cl)SCc1ccccc1,GI50,786-0,38.2 µM (inactive)
same,GI50,A498,32.9 µM (inactive)
same,GI50,A549,30 µM (inactive)
same,GI50,ACHN,20.5 µM (inactive)
same,GI50,BT-549,26.2 µM (inactive)
same,GI50,CAKI-1,22.6 µM (inactive)
same,GI50,COLO 205,34.9 µM (inactive)
same,GI50,DU-145,39.4 µM (inactive)
same,GI50,EKVX,40.7 µM (inactive)
same,GI50,HCT-116,32.3 µM (inactive)
same,GI50,HCT-15,18.1 µM
same,GI50,HL-60,18.8 µM (inactive)
same,GI50,HOP-62,26 µM (inactive)
same,GI50,HOP-92,21.3 µM (inactive)
same,GI50,HT-29,20.8 µM (inactive)
same,GI50,Hs-578T,34.3 µM (inactive)
same,GI50,IGROV-1,33.9 µM (inactive)
same,GI50,K562,18.5 µM (inactive)
same,GI50,KM12,19.8 µM (inactive)
same,GI50,M14,34.9 µM (inactive)
same,GI50,MCF7,38.5 µM (inactive)
same,GI50,MDA-MB-231,13.1 µM (inactive)
same,GI50,MDA-MB-435,19.8 µM (inactive)
same,GI50,MOLT-4,22.8 µM (inactive)
same,GI50,Malme-3M,28.2 µM (inactive)
same,GI50,NCI-H226,18.5 µM (inactive)
same,GI50,NCI-H23,20.1 µM (inactive)
same,GI50,NCI-H460,45.8 µM (inactive)
same,GI50,NCI-H522,24.3 µM (inactive)
same,GI50,NCI/ADR-RES,24.9 µM (inactive)
same,GI50,OVCAR-3,21.8 µM (inactive)
same,GI50,OVCAR-4,22.2 µM (inactive)
same,GI50,OVCAR-5,22.8 µM (inactive)
same,GI50,OVCAR-8,20.1 µM (inactive)
same,GI50,PC-3,32 µM (inactive)
same,GI50,RPMI-8226,21 µM (inactive)
same,GI50,RXF 393,54.8 µM (inactive)
same,GI50,SF-268,38.1 µM (inactive)
same,GI50,SF-295,19.4 µM (inactive)
same,GI50,SF-539,23.1 µM (inactive)
same,GI50,SK-MEL-28,28.6 µM (inactive)
same,GI50,SK-MEL-2,> 100 µM (inactive)
same,GI50,SK-MEL-5,20.7 µM (inactive)
same,GI50,SK-OV-3,56 µM (inactive)
same,GI50,SN12C,> 100 µM (inactive)
same,GI50,SNB-19,28.6 µM (inactive)
same,GI50,SNB-75,39.3 µM (inactive)
same,GI50,SR,0.0129 µM (active)
same,GI50,SW-620,35.2 µM (inactive)
same,GI50,T47D,32.3 µM (inactive)
same,GI50,TK-10,24.7 µM (inactive)
same,GI50,U-251,22.2 µM (inactive)
same,GI50,UACC-257,19 µM (inactive)
same,GI50,UACC-62,66.5 µM (inactive)
same,GI50,UO-31,40.6 µM (inactive)
CN1CN(c2ccccc2)C2(CCN(CCCCCCF)CC2)C1=O,GI50,786-0,> 100 µM (inactive)
same,GI50,A549,57.7 µM (inactive)
same,GI50,ACHN,31.6 µM (inactive)
same,GI50,BT-549,3.41 µM (inactive)
same,GI50,CAKI-1,41.9 µM (inactive)
same,GI50,CCRF-CEM,37.9 µM (inactive)
same,GI50,COLO 205,21.1 µM (inactive)
same,GI50,DU-145,44.1 µM (inactive)
same,GI50,EKVX,48.6 µM (inactive)
same,GI50,HCT-116,28.8 µM (inactive)
same,GI50,HCT-15,54.5 µM
same,GI50,HL-60,> 100 µM (inactive)
same,GI50,HOP-62,31.1 µM (inactive)
same,GI50,HT-29,30.9 µM (inactive)
same,GI50,IGROV-1,40.3 µM (inactive)
same,GI50,K562,> 100 µM (inactive)
same,GI50,KM12,> 100 µM (inactive)
same,GI50,LOX IMVI,> 100 µM (inactive)
same,GI50,M14,73.5 µM (inactive)
same,GI50,MCF7,23.8 µM (inactive)
same,GI50,MDA-MB-231,81.1 µM (inactive)
same,GI50,MDA-MB-435,> 100 µM (inactive)
same,GI50,MDA-N,63.8 µM (inactive)
same,GI50,MOLT-4,48.9 µM (inactive)
same,GI50,Malme-3M,> 100 µM (inactive)
same,GI50,NCI-H226,> 100 µM (inactive)
same,GI50,NCI-H23,94 µM (inactive)
same,GI50,NCI-H522,> 100 µM (inactive)
same,GI50,NCI/ADR-RES,16.4 µM (inactive)
same,GI50,OVCAR-3,> 100 µM (inactive)
same,GI50,OVCAR-5,35 µM (inactive)
same,GI50,OVCAR-8,> 100 µM (inactive)
same,GI50,PC-3,> 100 µM (inactive)
same,GI50,RPMI-8226,> 100 µM (inactive)
same,GI50,RXF 393,> 100 µM (inactive)
same,GI50,SF-268,94.8 µM (inactive)
same,GI50,SF-295,82 µM (inactive)
same,GI50,SF-539,28.8 µM (inactive)
same,GI50,SK-MEL-28,> 100 µM (inactive)
same,GI50,SK-MEL-5,38.1 µM (inactive)
same,GI50,SK-OV-3,> 100 µM (inactive)
same,GI50,SN12C,68.9 µM (inactive)
same,GI50,SNB-19,71.1 µM (inactive)
same,GI50,SNB-75,> 100 µM (inactive)
same,GI50,SR,> 100 µM (inactive)
same,GI50,SW-620,53.8 µM (inactive)
same,GI50,T47D,29.9 µM (inactive)
same,GI50,TK-10,65.8 µM (inactive)
same,GI50,U-251,97.1 µM (inactive)
same,GI50,UACC-257,35.2 µM (inactive)
same,GI50,UACC-62,90.2 µM (inactive)
same,GI50,UO-31,26.7 µM (inactive)
COc1cccc(-c2cc(O)c3cc(N(C)C)ccc3n2)c1,GI50,A498,< 0.01 µM (active)
same,GI50,BT-549,0.681 µM (active)
same,GI50,HCT-15,0.00925 µM and 0.0116 µM
same,GI50,HOP-62,25.6 nM (active) and 16.7 nM (active)
same,GI50,HT-29,22.9 nM (active) and 14 nM (active)
same,GI50,MDA-MB-231,42.7 nM (active) and 25.8 nM (active)
same,GI50,MDA-MB-435,2.68 nM (active) and 1.39 nM (active)
same,GI50,MDA-N,1.24 nM (active) and 2.27 nM (active)
same,GI50,NCI-H226,37.6 nM (active) and 23.7 nM (active)
same,GI50,NCI-H23,31.4 nM (active) and 37.4 nM (active)
same,GI50,OVCAR-4,4.95 µM (inactive) and 7.4 µM (inactive)
same,GI50,OVCAR-5,48.1 nM (active) and 41.5 nM (active)
same,GI50,OVCAR-8,32.2 nM (active) and 18.2 nM (active)
same,GI50,RPMI-8226,30.2 nM (active) and 37.2 nM (active)
same,GI50,RXF 393,1.76 nM (active) and 18.8 nM (active)
same,GI50,SN12C,44.9 nM (active) and 24.3 nM (active)
same,GI50,SNB-19,30.4 nM (active) and 28.2 nM (active)
same,GI50,T47D,> 10 µM (inactive)
same,GI50,UACC-257,10.2 nM (active) and 5.13 nM (active)
